According to patent US20240122880A1, “COMPOSITIONS FOR TREATING HYPERCHOLESTEROLEMIA AND PREPARATION METHODS THEREOF” (UNIVERSITY OF SAN AGUSTIN, priority 2020, published 2024):

Legend:
[1] = tested on: lipase; experiment: Lipase inhibition assay (glycerol generated from cleavage of triglycerides, Sigma MAK046 kit); format: biochemical; conditions: relative to untreated lipase enzyme
Description: The lipase inhibition activities of the pineapple flesh, core, and stem crude extracts were determined by measuring the glycerol generated from the cleavage of triglycerides. The storage and preparation instruction were done according to the stated protocol of MAK, 046, Sigma Aldrich®, St. Louis, MO, USA.
Twenty μL of 750 mg/mL flesh, core, and stem at 100 mg/mL final concentration crude extracts were added to their respective wells.
Two μL of the lipase and Orlistat™ at 100 mg/mL and 10 mg/mL, respectively, were added to wells to serve as negative and positive control. All standards and samples were adjusted to 50 μL by adding Lipase Assay Buffer. A 100-μL reaction mix consisting of 93 μL Lipase Assay Buffer, 2 μL peroxidase substrate, 2 μL enzyme mix and 3 μL of lipase substrate was added to each well.
Absorbance was read at 570 nm every five minutes using CLARIOStar™ microplate reader at 37° C. incubation at slow kinetics mode for two hours. The percent lipase inhibition was calculated relative to the untreated lipase enzyme.

[2] = biological target: T1, HMG-CoA reductase (Homo sapiens, UniProt P04035); experiment: HMG-CoA reductase inhibition assay (NADPH oxidation at 340 nm, Sigma CS1090 kit); format: biochemical; conditions: sample concentration 2.1 μg/mL
T1 construct: by the catalytic subunit of 3-hydroxy-3-methylglutaryl CoA reductase; purchased Sigma Aldrich CS1090
T1 sequence (P04035 340-888 limits assumed): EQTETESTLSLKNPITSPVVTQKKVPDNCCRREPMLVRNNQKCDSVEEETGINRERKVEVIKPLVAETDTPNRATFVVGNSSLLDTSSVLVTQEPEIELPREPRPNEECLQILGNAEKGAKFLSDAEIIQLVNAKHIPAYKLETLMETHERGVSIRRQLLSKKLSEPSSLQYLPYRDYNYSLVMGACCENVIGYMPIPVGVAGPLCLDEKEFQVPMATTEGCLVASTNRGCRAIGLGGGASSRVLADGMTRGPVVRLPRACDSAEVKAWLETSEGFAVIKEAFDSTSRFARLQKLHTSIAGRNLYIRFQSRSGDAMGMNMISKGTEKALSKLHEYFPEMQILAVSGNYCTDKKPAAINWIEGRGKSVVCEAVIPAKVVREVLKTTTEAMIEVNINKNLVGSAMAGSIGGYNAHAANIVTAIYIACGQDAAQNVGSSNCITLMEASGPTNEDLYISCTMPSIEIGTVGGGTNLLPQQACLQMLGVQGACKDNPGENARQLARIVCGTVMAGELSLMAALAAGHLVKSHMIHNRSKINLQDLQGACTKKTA
Description: The assay was based on the spectrophotometric measurement of the decrease in absorbance at 340 nm, which represents the oxidation of Nicotinamide Adenine Dinucleotide Phosphate (NADPH) by the catalytic subunit of 3-hydroxy-3-methylglutaryl CoA reductase in the presence of substrate HMG-CoA. All storage and reagent preparations were performed according to the protocol (CS1090, Sigma Aldrich®, St. Louis, MO, USA).
Assay buffer (1×) in the HMG-CoA assay kit was added to all samples. 184 μL for the blank, 182 μL for the activity control, 181 μL for the inhibition control and samples according to the manufacturer's instructions in the Sigma-Aldrich® CS1090 assay kit.
Pravastatin™ (2.1 μg/mL) positive control, 20 μL of […], core (100 mg/mL final concentration) and 20 μL of 50 mg/mL stem (5 mg/mL final concentration) crude extracts were added to its assay buffers. Lower reaction concentration of extracts (20 μL of 250 mg/mL to obtain 25 mg/mL final concentration of flesh and core crude extracts) was also tested against HMG-CoA reductase enzyme.
Four μL of NADPH and 12 μL HMG-CoA substrate were also added to the treatments. The HMG-CoA reductase enzyme (2 μL) was kept on ice until added to the activity, inhibition controls, and samples.
The absorbance at 340 nm was monitored for every 20 seconds for up to 10 minutes using CLARIOStar™ plate reader. […]

HMG-COA reductase inhibition activity [2] [%] | Compound | Lipase inhibition activity ([1]; sample concentration 10 mg/mL) [%] | Lipase inhibition activity ([1]; sample concentration 100 mg/mL) [%]
– | CCCCCCCCCCC[C@@H](C[C@@H]1OC(=O)[C@H]1CCCCCC)OC(=O)[C@H](CC(C)C)NC=O [Orlistat ™, Orlistat] | 100±0.05 | 100 ± 0.05
82 | CC[C@H](C)C(=O)O[C@H]1C[C@H](O)C=C2C=C[C@H](C)[C@H](CC[C@@H](O)C[C@@H](O)CC(=O)O)[C@H]21 [Pravstatin ™, Pravastatin] | – | –
